Reference: patent publication US6420401B1, “1,2,5, thiadiazolidin-3-one 1,1-dioxide derivatives” (Wichita State University, priority 1997, dated 2002)
Values belong to the molecule of their own block, whether it stands above or below them.

Assays:
Type in all cases: biochemical
[1] = molecular target: T1, human leukocyte elastase (HLE) (Homo sapiens, UniProt P08246); assay: Inactivation of human leukocyte elastase, progress curve method
T1 sequence (P08246 30-267): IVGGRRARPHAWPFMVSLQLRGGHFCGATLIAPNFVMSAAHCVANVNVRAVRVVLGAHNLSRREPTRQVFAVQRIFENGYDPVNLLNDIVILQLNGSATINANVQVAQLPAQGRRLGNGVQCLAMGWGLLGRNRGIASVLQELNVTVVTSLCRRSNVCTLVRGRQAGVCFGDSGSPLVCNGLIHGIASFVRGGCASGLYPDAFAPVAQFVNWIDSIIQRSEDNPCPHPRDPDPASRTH
Method: (§1) Absorbance was recorded at 410 nm for reaction solutions containing 20.0 nM HLE, 1.00 mM MeOSuc-Ala-Ala-Pro-Val p-nitroanilide, and the indicated concentrations of inhibitor in 0.1 M HEPES buffer, pH 7.25, and 3.6% dimethyl sulfoxide. The temperature was maintained at 25° C., and the reactions were initiated by the addition of enzyme.
as §1, with “(Table 4). Absorbance” for “Absorbance”, “monitored” for “recorded”
(§2) An in vitro assay was used to screen compounds of the invention for the ability to reduce or inhibit serine protease activity. The human leukocyte elastase (HLE), cathepsin G (Cat G) and proteinase 3 (PR 3) assays have each been described in detail, Groutas et al. (1997) Biochemistry 36, 4739-4750. Chymase was assayed using N-succinyl Ala-Ala-Pro-Phe p-nitroanilide and 0.45 M Tris buffer/1.8 M NaCl, pH 8.03, Schechter, N. M. et al. (1993) J. Biol. Chem. 268, 23626-23633.
(§3) The rates of inactivation of HLE, Cat G or PR3 by each compound (or library of compounds) were determined by the progress curve method [Morrison, J. F. & Walsh, C. T. (1988) Adv. Enzymol. 61, 201-301]. Typical progress curves using a representative sulfonamide or heterocyclic sulfide inhibitor are illustrated in FIGS. 1 and 2, respectively. The apparent second-order rate constants kinact/kI M^−1 s^−1, the magnitude of which serves as an index of inhibitory potency, were determined by the progress curve method and are listed in Table 5 (sulfonamides), Table 6 (heterocyclic sulfides), Table 3 (oxa acids) , Tables 7 & 8 (libraries 1-30), and Table 9 (reversible inhibitors).

[2] = molecular target: T2, Human Leukocyte Proteinase 3 (PR 3) (Homo sapiens, UniProt P24158); assay: Inactivation of proteinase 3, progress curve method
T2 sequence (P24158 28-248): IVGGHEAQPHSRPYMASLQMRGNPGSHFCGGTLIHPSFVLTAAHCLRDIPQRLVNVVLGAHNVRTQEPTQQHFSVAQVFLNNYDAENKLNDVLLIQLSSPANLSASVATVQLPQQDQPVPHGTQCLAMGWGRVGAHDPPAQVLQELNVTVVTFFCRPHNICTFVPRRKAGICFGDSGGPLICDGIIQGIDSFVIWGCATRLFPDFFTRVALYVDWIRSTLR
Method: as §2, §3

[3] = molecular target: T3, human leukocyte cathepsin G (Cat G) (Homo sapiens, UniProt P08311); assay: Inactivation of cathepsin G, progress curve method
T3 sequence (P08311 21-244): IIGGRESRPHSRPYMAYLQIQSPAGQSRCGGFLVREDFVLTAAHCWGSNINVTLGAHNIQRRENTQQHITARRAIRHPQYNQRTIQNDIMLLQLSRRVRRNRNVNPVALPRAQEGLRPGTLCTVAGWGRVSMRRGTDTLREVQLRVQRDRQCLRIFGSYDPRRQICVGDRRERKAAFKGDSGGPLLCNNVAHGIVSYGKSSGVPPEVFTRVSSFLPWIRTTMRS
Method: as §2, §3
A solution of (L)-4,5-dibenzyl-1,2,5-thiadiazolidin-3-one 1,1 dioxide (0.5 g; 1.58 mmol) and ethyl α-bromofluoroacetate (0.44 g; 2.37 mmol) in dry dimethyl formamide (3 mL) was treated with 60% sodium hydride ([…]; 1.58 mmol). The reaction mixture was kept at 55° C. for 1 h using a water bath. The solvent was removed in vacuo and the product was dissolved in ethyl acetate (35 mL) and washed with water (3×10 mL), 5% sodium bicarbonate (2×10 mL) and dried over anhydrous sodium sulfate. Evaporation of the solvent yielded a crude product (0.56 g) which was purified by flash chromatography using silica gel and a hexane/methylene chloride gradient. The product K-1a (0.15 g; 25% yield) was screened against human leukocyte cathepsin G using the progress curve method (kinact/Ki>10,000 M^−1 s^−1). [drawing 45] [drawing 46] [drawing 47] [drawing 48] [drawing 49]

[4] = Table 6, heterocyclic sulfides 53-69
[5] = Table 5, sulfonamides 31-49, apparent second-order rate constant

Compound: CC(C)CC1C(=O)N(CSc2nc(-c3ccccc3)no2)S(=O)(=O)N1C (centres unmarked) [Compound 53]
kinact/KI [1, 4]: 153000 M⁻¹ s⁻¹

Compound: CC(C)CC1C(=O)N(CN(C(=O)CNC(=O)OCc2ccccc2)S(C)(=O)=O)S(=O)(=O)N1C (centres unmarked) [Compound 43]
kinact/KI [1, 5]: 229000 M⁻¹ s⁻¹
kinact/KI ([2]; Table 5, sulfonamides 31-49): 27400 M⁻¹ s⁻¹
kinact/KI ([3]; Table 5, sulfonamides 31-49): 60 M⁻¹ s⁻¹

Compound: CC(C)COC(=O)N(CN1C(=O)C(CC(C)C)N(C)S1(=O)=O)S(C)(=O)=O (centres unmarked) [Compound 31]
kinact/KI [1, 5]: 11900 M⁻¹ s⁻¹

Compound: CC(C)CC1C(=O)N(CN(C(=O)CNC(=O)OCc2ccccc2)S(C)(=O)=O)S(=O)(=O)N1Cc1ccccc1 (centres unmarked) [Compound 45]
kinact/KI [1, 5]: 134000 M⁻¹ s⁻¹
kinact/KI ([2]; Table 5, sulfonamides 31-49): 30100 M⁻¹ s⁻¹
kinact/KI ([3]; Table 5, sulfonamides 31-49): 70 M⁻¹ s⁻¹

Compound: CC(C)CC1C(=O)N(CN(C(=O)CNC(=O)OC(C)(C)C)S(C)(=O)=O)S(=O)(=O)N1C (centres unmarked) [Compound 42]
kinact/KI [1, 5]: 140000 M⁻¹ s⁻¹
kinact/KI ([2]; Table 5, sulfonamides 31-49): 27400 M⁻¹ s⁻¹

Compound: CC(C)CC1C(=O)N(CN(C(=O)Cc2ccccc2)S(C)(=O)=O)S(=O)(=O)N1C (centres unmarked) [Compound 40]
kinact/KI [1, 5]: 28300 M⁻¹ s⁻¹
kinact/KI ([2]; Table 5, sulfonamides 31-49): 10100 M⁻¹ s⁻¹
kinact/KI ([3]; Table 5, sulfonamides 31-49): 220 M⁻¹ s⁻¹

Compound: CC(C)CC1C(=O)N(CN(C(=O)c2ccccc2)S(C)(=O)=O)S(=O)(=O)N1C (centres unmarked) [Compound 39]
kinact/KI [1, 5]: 71000 M⁻¹ s⁻¹

Compound: CCOC(=O)CNC(=O)N(CN1C(=O)C(CC(C)C)N(Cc2ccccc2)S1(=O)=O)S(C)(=O)=O (centres unmarked) [Compound 48]
kinact/KI [1, 5]: 14100 M⁻¹ s⁻¹
kinact/KI ([2]; Table 5, sulfonamides 31-49): 5190 M⁻¹ s⁻¹
kinact/KI ([3]; Table 5, sulfonamides 31-49): 70 M⁻¹ s⁻¹

Compound: CC(C)CC1C(=O)N(CN(C(=O)OCc2ccccc2)S(C)(=O)=O)S(=O)(=O)N1C (centres unmarked) [Compound 33]
kinact/KI [1, 5]: 22000 M⁻¹ s⁻¹

Compound: CCCCOC(=O)N(CN1C(=O)C(Cc2ccccc2)N(Cc2ccccc2)S1(=O)=O)S(C)(=O)=O (centres unmarked) [Compound 38]
kinact/KI [1, 5]: 1970 M⁻¹ s⁻¹
kinact/KI ([3]; Table 5, sulfonamides 31-49): 5380 M⁻¹ s⁻¹

Compound: CC(C)CC1C(=O)N(CN(C(=O)CNC(=O)OC(C)(C)C)S(C)(=O)=O)S(=O)(=O)N1Cc1ccccc1 (centres unmarked) [Compound 44]
kinact/KI [1, 5]: 149000 M⁻¹ s⁻¹

Compound: CC(C)CC1C(=O)N(CN2C(=O)C(CC(C)C)N(Cc3ccccc3)S2(=O)=O)S(=O)(=O)N1Cc1ccccc1 (centres unmarked) [Compound 49]
kinact/KI [1, 5]: 850 M⁻¹ s⁻¹

Compound: CCCCOC(=O)N(CN1C(=O)C(CC(C)C)N(C)S1(=O)=O)S(C)(=O)=O (centres unmarked) [Compound 32]
kinact/KI [1, 5]: 40500 M⁻¹ s⁻¹

Second part, the molecule after the results:

kinact/KI [3, 4]: 430 M⁻¹ s⁻¹
Compound: CN1C(Cc2ccccc2)C(=O)N(CSc2nc3ccccc3o2)S1(=O)=O (centres unmarked) [Compound 66]

kinact/KI HLE [1, 4]: inactive
kinact/KI [3, 4]: 490 M⁻¹ s⁻¹
Compound: CN1C(Cc2ccccc2)C(=O)N(CSc2nnc(-c3ccccc3)o2)S1(=O)=O (centres unmarked) [Compound 65]

kinact/KI [1, 4]: 1540 M⁻¹ s⁻¹
Compound: CC(C)CC1C(=O)N(CSc2nc(-c3ccccc3)c(-c3ccccc3)o2)S(=O)(=O)N1C (centres unmarked) [Compound 60]

kinact/KI [1, 4]: 22600 M⁻¹ s⁻¹
Compound: CC(C)CC1C(=O)N(CSc2nc3cc(-c4ccccc4)ccc3o2)S(=O)(=O)N1C (centres unmarked) [Compound 63]

kinact/KI [1, 4]: 174000 M⁻¹ s⁻¹
kinact/KI [2, 4]: 9130 M⁻¹ s⁻¹
kinact/KI [3, 4]: 60 M⁻¹ s⁻¹
Compound: CC(C)CC1C(=O)N(CSc2nc3ccccc3o2)S(=O)(=O)N1Cc1ccccc1 (centres unmarked) [Compound 55]

kinact/KI [3, 4]: 17100 M⁻¹ s⁻¹
Compound: O=C1C(Cc2ccccc2)N(Cc2ccccc2)S(=O)(=O)N1CSc1nc2ccccc2o1 (centres unmarked) [Compound 67]

kinact/Ki ([3]; human leukocyte cathepsin G, progress curve method): > 10,000 M^−1 s^−1
Compound: CCOC(=O)C(F)N1C(=O)C(Cc2ccccc2)N(Cc2ccccc2)S1(=O)=O (centres unmarked) [Compound K-1a]

kinact/KI [1, 4]: 168000 M⁻¹ s⁻¹
Compound: CC(C)CC1C(=O)N(CSc2nnc(-c3ccccc3)o2)S(=O)(=O)N1Cc1ccccc1 (centres unmarked) [Compound 58]

kinact/KI [3, 4]: 17500 M⁻¹ s⁻¹
Compound: O=C1C(Cc2ccccc2)N(Cc2ccccc2)S(=O)(=O)N1CSc1nnc(-c2ccccc2)o1 (centres unmarked) [Compound 68]

kinact/KI [1, 4]: 560 M⁻¹ s⁻¹
Compound: CC(C)CC1C(=O)N(CSc2nc(-c3ccccc3)c(-c3ccccc3)o2)S(=O)(=O)N1Cc1ccccc1 (centres unmarked) [Compound 56]

kinact/KI [1, 4]: 67300 M⁻¹ s⁻¹
Compound: CC(C)CC1C(=O)N(CSc2nc3ccccc3s2)S(=O)(=O)N1C (centres unmarked) [Compound 54]

kinact/KI HLE [1, 4]: inactive
kinact/KI [2, 4]: 1090 M⁻¹ s⁻¹
kinact/KI [3, 4]: 50 M⁻¹ s⁻¹
Compound: CC(C)CC1C(=O)N(CSc2nc3cc(-c4ccccc4)ccc3o2)S(=O)(=O)N1Cc1ccccc1 (centres unmarked) [Compound 64]

kinact/KI [1, 4]: 22400 M⁻¹ s⁻¹
Compound: CC(C)CC1C(=O)N(CSc2nc3ccccc3s2)S(=O)(=O)N1Cc1ccccc1 (centres unmarked) [Compound 59]

kinact/KI [1, 4]: 80600 M⁻¹ s⁻¹
kinact/KI [2, 4]: 10400 M⁻¹ s⁻¹
kinact/KI [3, 4]: 30 M⁻¹ s⁻¹
Compound: CC(C)CC1C(=O)N(CSc2nc3ccccc3o2)S(=O)(=O)N1C (centres unmarked) [Compound 57]

kinact/KI [3, 4]: 15700 M⁻¹ s⁻¹
Compound: Nc1ccc2nc(SCN3C(=O)C(Cc4ccccc4)N(Cc4ccccc4)S3(=O)=O)oc2c1 (centres unmarked) [Compound 69]

kinact/KI [1, 4]: 67800 M⁻¹ s⁻¹
Compound: CC(C)CC1C(=O)N(CSc2nc(-c3ccccc3)no2)S(=O)(=O)N1Cc1ccccc1 (centres unmarked) [Compound 62]

kinact/KI [1, 4]: 25300 M⁻¹ s⁻¹
Compound: CC(C)CC1C(=O)N(CSc2nnc(-c3ccccc3)o2)S(=O)(=O)N1C (centres unmarked) [Compound 61]
